Laboratory results reported in US20240148707A1, “MODULATION OF DRUG-DRUG INTERACTIONS OF VADADUSTAT” (Akebia Therapeutics, Inc., priority 2021, published 2024).
Read-outs that look alike come from different tables or passages of the source.

Tests used:
normal rat = assay: Blood erythropoietin concentration increasing action; assay type: in vivo; settings: single oral administration
[1] = [14C]-labeled Compound 1 metabolism and excretion study in healthy adult males; assay type: in vivo, human
From the text: The urinary excretion rate of this drug and acyl glucuronide is less than 1% of the total radioactivity.

[2] = system: UGT1A1, UGT1A7, UGT1A8 and UGT1A9; assay: UGT isoforms generating the O-glucuronide (in vitro); assay type: in vitro ADME, human
CYP2B6 = target: T1, CYP2B6 (Homo sapiens, UniProt P20813); assay: Enzyme inhibition (in vitro); assay type: in vitro ADME
T1 sequence (P20813 1-491): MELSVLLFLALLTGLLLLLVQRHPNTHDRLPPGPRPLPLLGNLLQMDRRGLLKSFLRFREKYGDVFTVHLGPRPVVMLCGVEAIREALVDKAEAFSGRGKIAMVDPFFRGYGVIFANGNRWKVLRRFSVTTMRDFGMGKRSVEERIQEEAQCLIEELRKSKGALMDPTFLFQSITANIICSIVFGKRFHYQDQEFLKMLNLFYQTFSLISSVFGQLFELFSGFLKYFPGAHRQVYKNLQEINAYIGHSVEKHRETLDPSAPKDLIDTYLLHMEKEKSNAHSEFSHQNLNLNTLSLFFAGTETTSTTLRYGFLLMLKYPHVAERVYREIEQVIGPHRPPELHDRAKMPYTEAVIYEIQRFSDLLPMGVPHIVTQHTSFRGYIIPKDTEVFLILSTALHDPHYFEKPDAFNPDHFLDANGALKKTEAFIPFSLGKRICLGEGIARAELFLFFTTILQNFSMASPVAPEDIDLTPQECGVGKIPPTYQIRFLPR

UGT1A1 = target: T2, UGT1A1 (Homo sapiens, UniProt P22309); assay: Enzyme inhibition (in vitro); assay type: in vitro ADME
T2 sequence (P22309 26-533): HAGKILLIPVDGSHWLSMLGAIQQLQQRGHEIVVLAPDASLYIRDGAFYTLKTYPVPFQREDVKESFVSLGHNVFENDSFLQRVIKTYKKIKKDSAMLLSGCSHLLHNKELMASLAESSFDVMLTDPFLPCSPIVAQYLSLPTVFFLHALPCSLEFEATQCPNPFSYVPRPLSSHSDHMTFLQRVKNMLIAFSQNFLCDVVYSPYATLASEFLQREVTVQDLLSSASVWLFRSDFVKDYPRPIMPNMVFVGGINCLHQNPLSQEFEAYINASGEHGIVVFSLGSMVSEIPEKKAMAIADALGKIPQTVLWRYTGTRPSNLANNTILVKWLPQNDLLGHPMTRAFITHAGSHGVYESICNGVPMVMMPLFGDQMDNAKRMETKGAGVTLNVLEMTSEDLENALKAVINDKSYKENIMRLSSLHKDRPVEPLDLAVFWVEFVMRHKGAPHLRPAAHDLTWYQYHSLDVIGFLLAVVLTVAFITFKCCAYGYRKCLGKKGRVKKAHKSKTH

[3] = Phase III clinical trial in patients with hemodialysis anemia; assay type: in vivo, human
Procedure: The incidence of adverse reactions when this drug was administered up to 24 weeks was 8.3% (2/24 cases).

[4] = Phase I drug-drug interaction study with probenecid (Part 1, Arm 2); assay type: in vivo, human; settings: for AUC(0-inf) / AUC(0-t) / Cmax: both sexes, human, plasma, fasted
Procedure: A phase I, open-label, 2-part study was conducted in healthy male and female subjects to evaluate the potential for interaction of cyclosporine (Part 1, Arm 1), probenecid (Part 1, Arm 2), and rifampin (Part 2) with vadadustat.
On the morning of Day 1, subjects received a single oral dose of vadadustat (300 mg) as 2×150 mg tablets after at least a 10-hour overnight fast and remained fasted for at least 4 hours post-dose. Following a 2-day washout (Days 1 to 2), subjects received 1 oral probenecid 500 mg tablet Q12 h for 4 days (Days 3 to 6). On days that probenecid was administered alone (Days 3, 4, and 6), probenecid was administered in a fasted state 1 hour prior to a standard breakfast and 1 hour prior to an evening meal or snack. On Day 5, probenecid was co-administered with a single dose of vadadustat (300 mg as 2×150 mg tablets) following at least a 10-hour fast. Subjects remained fasted for at least 4 hours after dosing.
On days vadadustat was administered (Day 1 and Day 5), blood samples for PK analysis were collected up to 48 hours postdose. In addition, on vadadustat dosing days, pooled urine samples were collected up to 24 hours post-dose. Subjects were discharged from the CRU on the morning of Day 7, after the final 48-hour post-dose PK sample had been collected. A follow-up phone call was conducted 30 days±2 days after the final dose.

## O=C(O)CNC(=O)c1ncc(-c2cccc(Cl)c2)cc1O [Compound 1, {[5-(3-chlorophenyl)-3-hydroxypyridine-2-carbonyl]amino}acetic acid]
Normal rat
  blood erythropoietin levels: elevated blood erythropoietin levels
[1]; healthy adult male (6), single oral 650 mg [14C]-labeled Compound 1
  share of the total radioactivity (AUC0-∞) in plasma: 75%
[1]; single dose 650 mg [14C]-labeled, by 72 hours after administration
  total radioactivity administered recovered in urine: 58.9%
[2]
  UGT isoforms involved in the generation of the O-glucuronide: UGT1A1, UGT1A7, UGT1A8 and UGT1A9
CYP2B6
  inhibitory effect on CYP2B6: inhibitory effect
UGT1A1
  inhibitory effect on UGT1A1: inhibitory effect
[3]; administered up to 24 weeks (2/24 cases)
  incidence of adverse reactions: 8.3%
[3]; baseline, 23 people, mean ± standard deviation
  hemoglobin level before administration: 9.30 ± 0.67
[4]; oral, vadadustat 300 mg single dose + probenecid 500 mg Q12h (multiple doses), read-out: AUCinf, geometric LSM, Treatment V + P
  AUC(0-inf): 427 µg·h/mL
[4]; oral, vadadustat 300 mg single dose + probenecid 500 mg Q12h (multiple doses), read-out: AUClast, geometric LSM, Treatment V + P
  AUC(0-t): 417 µg·h/mL
[4]; oral, vadadustat 300 mg single dose + probenecid 500 mg Q12h (multiple doses), read-out: Cmax, geometric LSM, Treatment V + P
  Cmax: 48800 ng/mL
[4]; vadadustat 300 mg alone, single oral dose, read-out: AUCinf, geometric LSM, Treatment V
  AUC(0-inf): 234 µg·h/mL
[4]; vadadustat 300 mg alone, single oral dose, read-out: AUClast, geometric LSM, Treatment V
  AUC(0-t): 233 µg·h/mL
[4]; vadadustat 300 mg alone, single oral dose, read-out: Cmax, geometric LSM, Treatment V
  Cmax: 47500 ng/mL
[4]; during treatment with probenecid, healthy subjects
  tolerability: tolerated
[4]; in combination with probenecid
  change of Cmax values: relatively unchanged
  urinary excretion: decreased
